Results taken from ChEMBL document CHEMBL1126376, “Synthesis and activities of 9-pyrrolo-9-deoxoerythromycin a analogs” (1992).
Converted amounts (≈) assume the structure as drawn.

How the values were obtained:
Experiment in all cases: microbe, parasite or virus in culture
Format in all cases: functional
Enterococcus faecalis = tested on: Enterococcus faecalis
Description: In vitro minimum inhibitory concentration against Enterococcus faecalis (MB 5407) was determined

Haemophilus influenzae = tested on: Haemophilus influenzae
Description: In vitro minimum inhibitory concentration against Haemophilus influenzae (MB 5363) was determined

[1] = tested on: Staphylococcus epidermidis
Description: In vitro minimum inhibitory concentration against Staphylococcus epidermidis (MB 5414) was determined

Staphylococcus aureus = tested on: Staphylococcus aureus
Description: In vitro minimum inhibitory concentration against Staphylococcus aureus (MB 2865) was determined

Streptococcus pneumoniae = tested on: Streptococcus pneumoniae
Description: In vitro minimum inhibitory concentration against Streptococcus pneumoniae (CL 2883) was determined

Streptococcus pyogenes = tested on: Streptococcus pyogenes
Description: In vitro minimum inhibitory concentration against Streptococcus pyogenes (MB 2874) was determined

MIC (Enterococcus faecalis) [µg/mL]	MIC (Haemophilus influenzae) [µg/mL]	MIC [1] [µg/mL]	MIC (Staphylococcus aureus) [µg/mL]	MIC (Streptococcus pneumoniae) [µg/mL]	MIC (Streptococcus pyogenes) [µg/mL]	SMILES
32 (≈ 40.8 µM)	> 128	64 (≈ 81.5 µM)	128 (≈ 163 µM)	2 (≈ 2.55 µM)		CC[C@H]1OC(=O)[C@H](C)[C@@H](O[C@H]2C[C@@](C)(OC)[C@@H](O)[C@H](C)O2)[C@H](C)[C@@H](O[C@@H]2O[C@H](C)C[C@H](N(C)C)[C@H]2O)[C@](C)(O)C[C@@H](C)[C@@H](n2cccc2)[C@H](C)[C@@H](O)[C@]1(C)O
64 (≈ 81.5 µM)	128 (≈ 163 µM)	32 (≈ 40.8 µM)	64 (≈ 81.5 µM)	4 (≈ 5.1 µM)	4 (≈ 5.1 µM)	CC[C@H]1OC(=O)[C@H](C)[C@@H](O[C@H]2C[C@@](C)(OC)[C@@H](O)[C@H](C)O2)[C@H](C)[C@@H](O[C@@H]2O[C@H](C)C[C@H](N(C)C)[C@H]2O)[C@](C)(O)C[C@@H](C)[C@H](n2cccc2)[C@H](C)[C@@H](O)[C@]1(C)O
64 (≈ 78.7 µM)	64 (≈ 78.7 µM)	32 (≈ 39.4 µM)	32 (≈ 39.4 µM)	64 (≈ 78.7 µM)	32 (≈ 39.4 µM)	CC[C@H]1OC(=O)[C@H](C)[C@@H](O[C@H]2C[C@@](C)(OC)[C@@H](O)[C@H](C)O2)[C@H](C)[C@@H](O[C@@H]2O[C@H](C)C[C@H](N(C)C)[C@H]2O)[C@](C)(O)C[C@@H](C)[C@H](n2ccc(C=O)c2)[C@H](C)[C@@H](O)[C@]1(C)O
16 (≈ 17.8 µM)	32 (≈ 35.5 µM)	4 (≈ 4.44 µM)	8 (≈ 8.88 µM)	0.5 (≈ 0.555 µM)	0.25 (≈ 0.277 µM)	CC[C@H]1OC(=O)[C@H](C)[C@@H](O[C@H]2C[C@@](C)(OC)[C@@H](O)[C@H](C)O2)[C@H](C)[C@@H](O[C@@H]2O[C@H](C)C[C@H](N(C)C)[C@H]2O)[C@](C)(O)C[C@@H](C)[C@H](n2ccc(O)c2C(=O)OC(C)(C)C)[C@H](C)[C@@H](O)[C@]1(C)O
64 (≈ 71 µM)	> 128	64 (≈ 71 µM)	64 (≈ 71 µM)	16 (≈ 17.8 µM)	8 (≈ 8.88 µM)	CC[C@H]1OC(=O)[C@H](C)[C@@H](O[C@H]2C[C@@](C)(OC)[C@@H](O)[C@H](C)O2)[C@H](C)[C@@H](O[C@@H]2O[C@H](C)C[C@H](N(C)C)[C@H]2O)[C@](C)(O)C[C@@H](C)[C@@H](n2ccc(O)c2C(=O)OC(C)(C)C)[C@H](C)[C@@H](O)[C@]1(C)O
16 (≈ 19.7 µM)	128 (≈ 157 µM)	8 (≈ 9.84 µM)	32 (≈ 39.4 µM)	1 (≈ 1.23 µM)		CC[C@H]1OC(=O)[C@H](C)[C@@H](O[C@H]2C[C@@](C)(OC)[C@@H](O)[C@H](C)O2)[C@H](C)[C@@H](O[C@@H]2O[C@H](C)C[C@H](N(C)C)[C@H]2O)[C@](C)(O)C[C@@H](C)[C@@H](n2ccc(C=O)c2)[C@H](C)[C@@H](O)[C@]1(C)O
